Experimental data from patent US20040157845A1, “Vanilloid receptor ligands and their use in treatments” (Amgen Inc., priority 2003, published 2004).
Counter-ions that a name gives are not always drawn.

Structure (SMILES)	melting point
CC(C)c1ccc(NC(=O)c2cnc(Cc3c(Cl)cccc3Cl)[nH]2)cc1 (as salt: hydrochloride) [Example 12, {2-[(2,6-Dichlorophenyl)methyl]imidazol-5-yl}-N-[4-(methylethyl)phenyl]-carboxamide]	210 to 212 °C
O=C(Nc1ccc(Br)cc1)c1cnc(Cc2c(Cl)cccc2Cl)[nH]1 (as salt: hydrochloride) [Example 13, {2-[(2,6-Dichlorophenyl)methyl]imidazol-5-yl}-N-(4-bromophenyl)carboxamide]	253 to 254 °C
O=C(Nc1ccc(C(F)(F)F)nc1)c1csc(Cc2ccccc2Cl)n1 [Example 1, {2-[(2-Chlorophenyl)methyl](1,3-thiazol-4-yl)}-N-[6-(trifluoromethyl)(3-pyridyl)]carboxamide]	99 to 101 °C
Cc1cccc(C)c1Nc1nc(-c2nc3cc(C(F)(F)F)ccc3[nH]2)cs1 [Example 4, (2,6-Dimethylphenyl){4-[5-(trifluoromethyl)benzimidazol-2-yl](1,3-thiazol-2-yl)}amine]	250 to 251 °C
FC(F)(F)c1ccc2[nH]c(-c3csc(Nc4ncccc4Cl)n3)nc2c1 [Example 6, (3-Chloro(2-pyridyl)){4-[5-(trifluoromethyl)benzimidazol-2-yl](1,3-thiazol-2-yl)}amine]	207 to 208 °C
FC(F)(F)c1ccc2nc(-c3csc(Cc4c(Cl)cccc4Cl)n3)[nH]c2c1 [Example 8, 2-[(2,6-Dichlorophenyl)methyl]-4-[6-(trifluoromethyl)benzimidazol-2-yl]-1,3-thiazole]	187 to 189 °C
CC(C)c1ccc(NC(=O)c2cnc(Cc3c(Cl)cccc3Cl)s2)cc1 [Example 9, {2-[(2,6-Dichlorophenyl)methyl](1,3-thiazol-5-yl)}-N-[4-(methylethyl)phenyl]-carboxamide]	169 to 175 °C
FC(F)(F)c1ccc2nc(-c3csc(Nc4c(Cl)cccc4Cl)n3)[nH]c2c1 [Example 15, (2,6-Dichloro-phenyl)-[4-(6-trifluoromethyl-1H-benzoimidazol-2-yl)-thiazol-2-yl]-amine]	242 to 243 °C
O=C(Nc1ccc(F)c(F)c1)c1csc(Cc2c(Cl)cccc2Cl)n1 [Example 17, {2-[(2,6-Dichlorophenyl)methyl](1,3-thiazol-4-yl)}-N-(3,4-difluorophenyl)-carboxamide]	113 to 116 °C
Clc1cc2nc(-c3csc(Cc4c(Cl)cccc4Cl)n3)[nH]c2cc1Cl [Example 18, 4-(5,6-Dichlorobenzimidazol-2-yl)-2-[(2,6-dichlorophenyl)methyl]-1,3-thiazole]	245 to 247 °C
FC(F)(F)c1ccc2nc(-c3c[nH]c(Cc4c(Cl)cccc4Cl)n3)[nH]c2c1 [Example 20, 2-{2-[(2,6-Dichlorophenyl)methyl]imidazol-4-yl}-6-(trifluoromethyl)-benzimidazole]	281 to 282 °C
FC(F)(F)c1ccc2nc(-c3coc(Cc4c(Cl)cccc4Cl)n3)[nH]c2c1 [Example 21, 2-[(2,6-Dichlorophenyl)methyl]-4-[6-(trifluoromethyl)benzimidazol-2-yl]-1,3-oxazole]	201 to 202 °C
CC(=O)c1ccc(NC(=O)c2csc(Cc3c(Cl)cccc3Cl)n2)cc1 [Example 22]	98.8 to 106.9 °C
COc1ccc(NC(=O)c2csc(Cc3c(Cl)cccc3Cl)n2)cn1 [Example 23]	137.7 to 138.8 °C
O=C(Nc1ccc(C(F)(F)F)nc1)c1csc(Cc2c(Cl)cccc2Cl)n1 [Example 24]	139.1 to 147.1 °C
CC(C)c1ccc(NC(=O)c2csc(Cc3ccccc3Cl)n2)cc1 [Example 25]	85.4 to 92.7 °C
O=C(Nc1ccc(C(F)(F)F)nc1)c1csc(Cc2ccccc2F)n1 [Example 31]	104.8 to 107.7 °C
O=C(Nc1ccc(Br)cc1)c1csc(Cc2ccccc2F)n1 [Example 32]	100.8 to 101 °C
O=C(Nc1ccc(Br)cc1)c1csc(Cc2ccccc2Cl)n1 [Example 33]	109.4 to 110.6 °C
O=C(Nc1ccc(Br)cc1)c1csc(Cc2c(F)cccc2Cl)n1 [Example 34]	111.8 to 112.5 °C

Structure (SMILES)	melting point
O=C(Nc1ccc(C(F)(F)F)nc1)c1csc(Cc2c(F)cccc2Cl)n1 [Example 35]	123.4 to 125.1 °C
COc1ccccc1Cc1nc(C(=O)Nc2ccc(Br)cc2)cs1 [Example 36]	138 to 138.4 °C
Cc1ccccc1Cc1nc(C(=O)Nc2ccc(Br)cc2)cs1 [Example 37]	121.9 to 123.4 °C
COc1ccccc1Cc1nc(C(=O)Nc2ccc(C(F)(F)F)cc2)cs1 [Example 38]	107.2 to 108.2 °C
Cc1ccccc1Cc1nc(C(=O)Nc2ccc(C(F)(F)F)nc2)cs1 [Example 39]	140.2 to 141.3 °C
O=C(Nc1ccc(Br)cc1)c1csc(Cc2c(Cl)cccc2Cl)n1 [Example 40]	126.6 to 132 °C
CC(C)(C)c1ccc(NC(=O)c2csc(Cc3c(Cl)cccc3Cl)n2)cc1 [Example 49]	139 to 141 °C
CN(C)c1ccc(NC(=O)c2csc(Cc3c(Cl)cccc3Cl)n2)cc1 [Example 50]	172 to 174 °C
O=C(Nc1ccc(Br)cc1)c1csc(Nc2cccnc2Cl)n1 [Example 52]	214.7 to 216.2 °C
O=C(Nc1ccc(Br)cc1)c1csc(Nc2c(Cl)cncc2Cl)n1 [Example 53]	194.9 to 196.6 °C
O=C(Nc1ccc(C(O)(C(F)(F)F)C(F)(F)F)cc1)c1csc(Nc2ccccc2F)n1 [Example 54]	158 to 160 °C
O=C(Nc1ccc(Br)cc1)c1csc(Nc2ccccc2F)n1 [Example 55]	198.4 to 199.7 °C
CC(C)c1ccc(NC(=O)c2csc(Nc3ccccc3F)n2)cc1 [Example 58]	136.5 to 180.1 °C
O=C(Nc1ccc(Br)cc1)c1csc(Nc2ccccc2Cl)n1 [Example 60]	220.5 to 221.3 °C
Cc1cccc(C)c1Nc1nc(C(=O)Nc2ccc(C(C)C)cc2)cs1 [Example 64]	128 to 133 °C
Cc1cccc(C)c1Nc1nc(C(=O)Nc2ccc(Br)cc2)cs1 [Example 65]	208 to 209 °C
CC(C)c1ccc(NC(=O)c2csc(Nc3ccccc3C(F)(F)F)n2)cc1 [Example 67]	96 to 100 °C
FC(F)(F)c1ccc2[nH]c(-c3csc(Nc4ccccc4C(F)(F)F)n3)nc2c1 [Example 72]	211 to 212 °C
FC(F)(F)c1ccc2[nH]c(-c3csc(Nc4c(Cl)cccc4C(F)(F)F)n3)nc2c1 [Example 73]	188 to 210 °C

The next lines start with the values.

melting point	Structure (SMILES)
195 to 197 °C	O=C(Nc1ccc(C(F)(F)F)cc1)c1csc(Nc2c(Cl)cncc2Cl)n1 [Example 2, {2-[(3,5-Dichloro(4-pyridyl))amino](1,3-thiazol-4-yl)}-N-[4-(trifluoromethyl)-phenyl]carboxamide]
216 to 218 °C	Cc1cccc(C)c1Nc1nc(C(=O)Nc2ccc(C(F)(F)F)cc2)cs1 [Example 3, {2-[(2,6-Dimethylphenyl)amino](1,3-thiazol-4-yl) }-N-[4-(trifluoromethyl)-phenyl]carboxamide]
180 to 183 °C	Cc1nc(Cc2c(Cl)cccc2Cl)sc1C(=O)Nc1ccc(C(F)(F)F)cc1 [Example 7, {2-[(2,6-Dichlorophenyl)methyl]-4-methyl(1,3-thiazol-5-yl)}-N-[4-(trifluoromethyl)phenyl]carboxamide]
163 to 164 °C	O=C(Nc1ccc(C(F)(F)F)cc1)c1cnc(Cc2c(Cl)cccc2Cl)s1 [Example 10, {2-[(2,6-Dichlorophenyl)methyl](1,3-thiazol-5-yl)}-N-[4-(trifluoromethyl)-phenyl]carboxamide]
253 to 255 °C	O=C(Nc1ccc(C(F)(F)F)cc1)c1cnc(Cc2c(Cl)cccc2Cl)[nH]1 [Example 11, {2-[(2,6-Dichlorophenyl)methyl]imidazol-5-yl}-N-[4-(trifluoromethyl)-phenyl]carboxamide]
151 to 162 °C	O=C(Nc1ccc(C(F)(F)F)cc1)c1nc(Nc2c(Cl)cccc2Cl)sc1Br [Example 14, {2-[(2,6-Dichlorophenyl)amino]-5-bromo(1,3-thiazol-4-yl)}-N-[4-(trifluoromethyl)phenyl]carboxamide]
182 to 184 °C	O=C(Nc1ccc(C(F)(F)F)cc1)c1coc(Cc2c(Cl)cccc2Cl)n1 [Example 19, {2-[(2,6-Dichlorophenyl)methyl](1,3-oxazol-4-yl)}-N-[4-(trifluoromethyl)-phenyl]carboxamide]
85.5 to 94 °C	O=C(Nc1ccc(C(F)(F)F)cc1)c1csc(Cc2ccccc2Cl)n1 [Example 26]
197 to 197.8 °C	O=C(Nc1ccc(C(O)(C(F)(F)F)C(F)(F)F)cc1)c1csc(Cc2c(Cl)cccc2Cl)n1 [Example 43]
95 to 96.4 °C	O=C(Nc1ccc(C(F)(F)C(F)(F)F)cc1)c1csc(Cc2c(Cl)cccc2Cl)n1 [Example 47]
232.5 to 234.3 °C	O=C(Nc1ccc(C(F)(F)F)cc1)c1csc(Nc2cccnc2Cl)n1 [Example 51]
125.9 to 126.9 °C	O=C(Nc1ccc(Br)cc1)c1csc(Nc2c(Cl)cccc2Cl)n1 [Example 56]
192.5 to 193.1 °C	O=C(Nc1ccc(C(F)(F)F)cc1)c1csc(Nc2ccccc2Cl)n1 [Example 61]
199 to 200 °C	O=C(Nc1ccc(C(F)(F)F)cc1)c1csc(Nc2c(Cl)cccc2Cl)n1 [Example 63, {2-[(2,6-dichlorophenyl)amino](1,3-thiazol-4-yl)}-N-[4-(trifluoromethyl)phenyl]-carboxamide]
128 to 130 °C	O=C(Nc1ccc(C(F)(F)F)cc1)c1csc(Nc2ccccc2C(F)(F)F)n1 [Example 66]
151 to 153 °C	O=C(Nc1ccc(Br)cc1)c1csc(Nc2ccccc2C(F)(F)F)n1 [Example 68]
262 to 264 °C	O=C(Nc1ccc(Br)cc1)c1csc(Nc2c(Cl)cccc2C(F)(F)F)n1 [Example 69]
216 to 218 °C	CC(C)c1ccc(NC(=O)c2csc(Nc3c(Cl)cccc3C(F)(F)F)n2)cc1 [Example 70]
243 to 244 °C	O=C(Nc1ccc(C(F)(F)F)cc1)c1csc(Nc2c(Cl)cccc2C(F)(F)F)n1 [Example 71]
